Experimental data from patent publication US20200017496A1 (priority 2017, published 2020).
Where two headings read alike, the source gives them in different places.

Columns and labels:
Experiment in all cases: MIC of compounds alone and combined with antibacterials, broth microdilution (CLSI)
Format in all cases: cell-based
[1] = system: Citrobacter koseri (CKR) isolates; settings: for MIC ATB in combination: AF1 @ 4 μg/mL; for MIC: Citrobacter koseri, ATB alone
Method in brief: (§1)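 First, log-phase suspensions are brought to a final 5·10^5 CFU/mL in cation-adjusted Mueller-Hinton broth. Then plates with compound, antibacterial, or both incubate 16-20 h at 35° C under ambient air. Finally, visual inspection gives the lowest growth-preventing concentration for each agent.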

[2] = system: Providencia stuartii (PST) isolates; settings: AF1 @ 4 μg/mL
Method in brief: as §1

[3] = system: Klebsiella oxytoca (KOX) isolates; settings: for MIC ATB in combination: AF1 @ 4 μg/mL; for MIC: Klebsiella oxytoca, ATB alone
Method in brief: as §1

[4] = system: Klebsiella pneumoniae (KPN) isolates; settings: AF1 @ 4 μg/mL
Method in brief: as §1

[5] = system: Serratia marcescens (SMA) isolates; settings: for MIC: Serratia marcescens, ATB alone, read-out: MIC
Method in brief: as §1

[6] = system: Citrobacter freundii (CFR) isolates
Method in brief: as §1

[7] = system: Morganella morganii (MMO) isolates; settings: AF1 @ 4 μg/mL
Method in brief: as §1

C=CC1=C(C(=O)O)N2C(=O)[C@@H](NC(=O)/C(=N\O)c3csc(N)n3)[C@H]2SC1 [CDR, Cefdinir]
MIC ATB in combination ([1]; CKO ROU): 2 µg/mL
MIC ATB in combination ([1]; CKO UFR149): 32 µg/mL
MIC ATB in combination ([1]; CKO UFR150): 4 µg/mL
MIC ([1]; strain CKO ROU (TEM-1, SHV-12, CTX-M-15, OXA-1, OXA-48)): > 256 µg/mL
MIC ([1]; strain CKO UFR150 (TEM-1, OXA-48)): > 256 µg/mL
MIC ATB in combination ([2]; PST UFR94): <=0.25 μg/mL
MIC ATB in combination ([2]; PST UFR95): 1 µg/mL
MIC ATB in combination ([2]; PST UFR235): 2 µg/mL
MIC ATB in combination ([3]; KOX UFR21): 8 µg/mL
MIC ATB in combination ([3]; KOX UFR173): 0.5 µg/mL
MIC ATB in combination ([3]; KOX UFR223): <=0.25 μg/mL
MIC ATB in combination ([3]; KOX UFR224): <=0.25 μg/mL
MIC ([3]; strain KOX UFR21 (TEM-1, CTX-M-15, OXA-48)): > 256 µg/mL
MIC ([3]; strain KOX UFR223 (SHV-11, OXA-48)): > 256 µg/mL
MIC ([3]; strain KOX UFR224 (CTX-M-15, OXA-48)): > 256 µg/mL
MIC ATB in combination ([4]; KPN 6299): <=0.25 μg/mL
MIC ATB in combination ([4]; KPN 110376): 0.5 µg/mL
MIC ATB in combination ([4]; KPN 131119): 1 µg/mL
MIC ATB in combination ([4]; KPN 140513): 16 µg/mL
MIC ATB in combination ([4]; KPN 160143): <=0.25 μg/mL
MIC ATB in combination ([4]; KPN 190128): 1 µg/mL
MIC ATB in combination ([4]; KPN 190270): 1 µg/mL
MIC ATB in combination ([4]; KPN 190425): <=0.25 μg/mL
MIC ATB in combination ([4]; KPN 190551): <=0.25 μg/mL
MIC ATB in combination ([4]; KPN 200047): <=0.25 μg/mL
MIC ATB in combination ([4]; KPN 200327): <=0.25 μg/mL
MIC ATB in combination ([4]; KPN 260251): 0.5 µg/mL
MIC ATB in combination ([4]; KPN 260252): 16 µg/mL
MIC ATB in combination ([4]; KPN 260376): <=0.25 μg/mL
MIC ATB in combination ([4]; KPN 270077): 1 µg/mL
MIC ATB in combination ([4]; KPN 700603): 0.5 µg/mL
MIC ATB in combination ([4]; KPN ARA): 0.5 µg/mL
MIC ATB in combination ([4]; KPN BAA-1898): 0.5 µg/mL
MIC ATB in combination ([4]; KPN LIB): 1 µg/mL
MIC ATB in combination ([4]; KPN UFR22_O): 1 µg/mL
MIC ATB in combination ([4]; KPN UFR23): 0.5 µg/mL
MIC ATB in combination ([4]; KPN UFR24): 4 µg/mL
MIC ATB in combination ([4]; KPN UFR25): <=0.25 μg/mL
MIC ATB in combination ([4]; KPN UFR27): 8 µg/mL
MIC ATB in combination ([4]; KPN UFR28): 1 µg/mL
MIC ATB in combination ([4]; KPN UFR65): 2 µg/mL
MIC ATB in combination ([4]; KPN UFR66): 2 µg/mL
MIC ATB in combination ([4]; KPN UFR67): 16 µg/mL
MIC ATB in combination ([4]; KPN UFR68): 2 µg/mL
MIC ATB in combination ([4]; KPN UFR76): >128 µg/mL
MIC ATB in combination ([4]; KPN UFR77): 8 µg/mL
MIC ATB in combination ([4]; KPN UFR78): 128 µg/mL
MIC ATB in combination ([4]; KPN UFR79): 16 µg/mL
MIC ATB in combination ([4]; KPN UFR80): 1 µg/mL
MIC ATB in combination ([4]; KPN UFR81): 16 µg/mL
MIC ATB in combination ([4]; KPN UFR215): 0.5 µg/mL
MIC ATB in combination ([4]; KPN UFR216): <=0.25 μg/mL
MIC ATB in combination ([4]; KPN UFR217): <=0.25 μg/mL
MIC ATB in combination ([4]; KPN UFR219): <=0.25 μg/mL
MIC ATB in combination ([4]; KPN UFR220): 2 µg/mL
MIC ATB in combination ([4]; KPN UFR221): 2 µg/mL
MIC ATB in combination ([4]; KPN UFR222): 16 µg/mL
MIC ATB in combination ([4]; KPN UFR227O): 32 µg/mL
MIC ATB in combination ([5]; SMA UFR30, AF1 @ 4 μg/mL): 1 µg/mL
MIC ATB in combination ([5]; SMA UFR134, AF1 @ 4 μg/mL): 4 µg/mL
MIC ATB in combination ([5]; SMA UFR135, AF1 @ 4 μg/mL): 16 µg/mL
MIC ATB in combination ([5]; SMA UFR136, AF1 @ 4 μg/mL): 16 µg/mL
MIC ATB in combination ([5]; SMA UFR137, AF1 @ 4 μg/mL): 1 µg/mL
MIC ATB in combination ([5]; SMA UFR138, AF1 @ 4 μg/mL): 4 µg/mL
MIC ATB in combination ([5]; SMA UFR139, AF1 @ 4 μg/mL): 4 µg/mL
MIC ATB in combination ([5]; SMA UFR141, AF1 @ 4 μg/mL): 4 µg/mL
MIC ATB in combination ([5]; SMA UFR142, AF1 @ 4 μg/mL): 8 µg/mL
MIC ATB in combination ([5]; SMA UFR143, AF1 @ 4 μg/mL): 2 µg/mL
MIC ATB in combination ([5]; SMA UFR239, AF1 @ 4 μg/mL): 16 µg/mL
MIC ([5]; strain SMA UFR238 (OXA-48)): > 256 µg/mL
MIC ([5]; strain SMA UFR30 (OXA-405)): > 256 µg/mL
MIC ([5]; strain SMA UFR136 (TEM-1, SHV-12, KPC-2)): > 256 µg/mL
MIC ([5]; strain SMA UFR141 (OXA-48)): > 256 µg/mL
MIC ([5]; strain SMA UFR142 (OXA-48)): > 256 µg/mL
MIC ([5]; strain SMA UFR143 (CTX-M-15, OXA-1, OXA-48)): > 256 µg/mL
MIC ATB in combination ([5]; strain SMA UFR238, antibacterial combined with AF1 @ 4 μg/mL): 4 µg/mL
MIC ATB in combination ([6]; CFR UFR10, AF1 @ 4 μg/mL): <=0.25 μg/mL
MIC ATB in combination ([6]; CFR UFR11, AF1 @ 4 μg/mL): 128 µg/mL
MIC ATB in combination ([6]; CFR UFR83, AF1 @ 4 μg/mL): >128 µg/mL
MIC ATB in combination ([6]; CFR UFR146, AF1 @ 4 μg/mL): 0.5 µg/mL
MIC ATB in combination ([6]; CFR UFR248, AF1 @ 4 μg/mL): 0.5 µg/mL
MIC ATB in combination ([6]; CFR UFR249, AF1 @ 4 μg/mL): <=0.25 μg/mL
MIC ATB in combination ([6]; CFR UFR250, AF1 @ 4 μg/mL): <=0.25 μg/mL
MIC ATB in combination ([6]; strain CFR UFR253, antibacterial combined with AF1 @ 4 μg/mL): <=0.25 μg/mL
MIC ATB in combination ([6]; strain CFR UFR254, antibacterial combined with AF1 @ 4 μg/mL): <=0.25 μg/mL
MIC ATB in combination ([7]; MMO 200321): 4 µg/mL
MIC ATB in combination ([7]; MMO UFR144): 4 µg/mL
MIC ATB in combination ([7]; MMO UFR240): 0.5 µg/mL
MIC ATB in combination ([7]; MMO UFR241): 4 µg/mL
MIC ATB in combination ([7]; MMO UFR242): 4 µg/mL
MIC ATB in combination ([7]; MMO UFR243): 4 µg/mL
MIC ATB in combination ([7]; MMO UFR244): 2 µg/mL
MIC ATB in combination ([7]; MMO UFR245): 4 µg/mL
MIC ATB in combination ([7]; MMO UFR246): 2 µg/mL
MIC ATB in combination ([7]; MMO UFR247): 1 µg/mL
